Results on ten molecules are retold here after patent US20230139171A1 (SITA Information Networking Computing UK Limited, priority 2019, published 2023).

What all share (type): cell-based
The target of one experiment is T1, human TLR7 (Homo sapiens, UniProt Q9NYK1).
T1 construct: host or cells: HEK-Blue cells
T1 sequence (Q9NYK1 27-1049): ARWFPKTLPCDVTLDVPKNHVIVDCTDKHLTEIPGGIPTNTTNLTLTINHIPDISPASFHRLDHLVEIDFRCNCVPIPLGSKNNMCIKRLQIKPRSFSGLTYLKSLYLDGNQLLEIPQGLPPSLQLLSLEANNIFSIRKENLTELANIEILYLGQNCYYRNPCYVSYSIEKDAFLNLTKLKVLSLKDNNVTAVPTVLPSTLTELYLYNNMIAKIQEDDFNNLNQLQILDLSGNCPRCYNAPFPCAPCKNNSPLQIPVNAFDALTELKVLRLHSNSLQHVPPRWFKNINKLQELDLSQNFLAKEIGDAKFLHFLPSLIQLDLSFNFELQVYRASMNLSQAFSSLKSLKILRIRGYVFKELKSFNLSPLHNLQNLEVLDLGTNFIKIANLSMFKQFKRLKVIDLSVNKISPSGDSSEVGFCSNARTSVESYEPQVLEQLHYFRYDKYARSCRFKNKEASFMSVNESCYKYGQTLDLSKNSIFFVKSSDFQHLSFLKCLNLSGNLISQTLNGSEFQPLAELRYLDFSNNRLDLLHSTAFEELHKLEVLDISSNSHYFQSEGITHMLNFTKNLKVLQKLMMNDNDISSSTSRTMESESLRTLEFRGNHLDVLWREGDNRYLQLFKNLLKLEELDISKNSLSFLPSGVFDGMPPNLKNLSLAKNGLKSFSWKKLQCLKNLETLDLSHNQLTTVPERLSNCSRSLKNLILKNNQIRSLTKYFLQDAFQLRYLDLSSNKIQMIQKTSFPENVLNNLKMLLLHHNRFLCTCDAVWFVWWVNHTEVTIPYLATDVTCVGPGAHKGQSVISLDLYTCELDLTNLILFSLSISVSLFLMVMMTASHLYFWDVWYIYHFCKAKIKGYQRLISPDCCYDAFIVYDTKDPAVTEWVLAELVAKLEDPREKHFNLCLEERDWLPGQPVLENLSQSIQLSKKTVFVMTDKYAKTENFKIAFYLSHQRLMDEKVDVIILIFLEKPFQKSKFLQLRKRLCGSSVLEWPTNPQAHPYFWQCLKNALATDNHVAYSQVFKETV
Kind of experiment: TLR7 inhibition reporter assay (HEK-Blue cells, SEAP reporter, gardiquimod stimulation). Particulars: HEK-Blue cells overexpressing human TLR7, SEAP reporter, gardiquimod 7.5 μM; read-out: TLR7 IC50. The procedure, abridged: (§1)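 Human TLR7/8/9 HEK-Blue reporter lines; dose range 0.05 nM–50 μM; 30 min RT preincubation; stimulus gardiquimod 7.5 μM / R848 15.9 μM / ODN2006 5 nM respectively; 22 h, 37 °C; SEAP detected colorimetrically.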
On the technique in general: Reporter assays use an easily measured gene product as a stand-in for the process of interest.

The next experiment concerns the target T2, human TLR8 (Homo sapiens, UniProt Q9NR97).
T2 construct: host or cells: HEK-Blue cells
T2 sequence (Q9NR97 27-1041): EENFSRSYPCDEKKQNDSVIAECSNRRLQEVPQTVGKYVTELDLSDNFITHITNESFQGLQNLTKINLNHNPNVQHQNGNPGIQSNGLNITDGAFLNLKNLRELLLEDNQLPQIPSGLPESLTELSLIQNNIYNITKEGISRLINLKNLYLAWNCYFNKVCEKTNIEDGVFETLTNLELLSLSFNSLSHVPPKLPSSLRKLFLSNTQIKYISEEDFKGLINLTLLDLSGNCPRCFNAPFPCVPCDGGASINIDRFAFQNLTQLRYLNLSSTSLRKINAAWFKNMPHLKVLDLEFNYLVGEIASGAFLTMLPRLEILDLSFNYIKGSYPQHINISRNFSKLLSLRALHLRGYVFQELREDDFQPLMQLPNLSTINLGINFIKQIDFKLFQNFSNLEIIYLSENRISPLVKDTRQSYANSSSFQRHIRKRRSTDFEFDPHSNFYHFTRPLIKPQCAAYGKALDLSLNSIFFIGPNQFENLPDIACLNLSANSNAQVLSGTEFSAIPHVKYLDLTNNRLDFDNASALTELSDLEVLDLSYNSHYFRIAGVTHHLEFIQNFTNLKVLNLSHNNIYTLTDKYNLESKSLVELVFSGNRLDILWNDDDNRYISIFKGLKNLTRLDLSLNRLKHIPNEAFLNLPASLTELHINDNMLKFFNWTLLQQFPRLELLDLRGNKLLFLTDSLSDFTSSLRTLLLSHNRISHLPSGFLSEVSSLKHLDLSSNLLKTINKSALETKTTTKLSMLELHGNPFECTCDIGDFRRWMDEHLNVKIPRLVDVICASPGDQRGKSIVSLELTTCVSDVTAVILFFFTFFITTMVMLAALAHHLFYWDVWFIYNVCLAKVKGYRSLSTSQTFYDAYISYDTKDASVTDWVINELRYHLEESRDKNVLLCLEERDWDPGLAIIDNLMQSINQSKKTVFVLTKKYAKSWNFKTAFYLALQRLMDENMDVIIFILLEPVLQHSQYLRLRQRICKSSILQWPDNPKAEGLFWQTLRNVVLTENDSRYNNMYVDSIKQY
The experiment can be described thus: TLR8 inhibition reporter assay (HEK-Blue cells, SEAP reporter, R848 stimulation). The following applies: HEK-Blue cells overexpressing human TLR8, SEAP reporter, R848 15.9 μM; read-out: TLR8 IC50. The procedure, abridged: as §1

The target of another experiment is T3, human TLR9 (Homo sapiens, UniProt Q9NR96).
T3 construct: host or cells: HEK-Blue cells
T3 sequence (Q9NR96 26-1032): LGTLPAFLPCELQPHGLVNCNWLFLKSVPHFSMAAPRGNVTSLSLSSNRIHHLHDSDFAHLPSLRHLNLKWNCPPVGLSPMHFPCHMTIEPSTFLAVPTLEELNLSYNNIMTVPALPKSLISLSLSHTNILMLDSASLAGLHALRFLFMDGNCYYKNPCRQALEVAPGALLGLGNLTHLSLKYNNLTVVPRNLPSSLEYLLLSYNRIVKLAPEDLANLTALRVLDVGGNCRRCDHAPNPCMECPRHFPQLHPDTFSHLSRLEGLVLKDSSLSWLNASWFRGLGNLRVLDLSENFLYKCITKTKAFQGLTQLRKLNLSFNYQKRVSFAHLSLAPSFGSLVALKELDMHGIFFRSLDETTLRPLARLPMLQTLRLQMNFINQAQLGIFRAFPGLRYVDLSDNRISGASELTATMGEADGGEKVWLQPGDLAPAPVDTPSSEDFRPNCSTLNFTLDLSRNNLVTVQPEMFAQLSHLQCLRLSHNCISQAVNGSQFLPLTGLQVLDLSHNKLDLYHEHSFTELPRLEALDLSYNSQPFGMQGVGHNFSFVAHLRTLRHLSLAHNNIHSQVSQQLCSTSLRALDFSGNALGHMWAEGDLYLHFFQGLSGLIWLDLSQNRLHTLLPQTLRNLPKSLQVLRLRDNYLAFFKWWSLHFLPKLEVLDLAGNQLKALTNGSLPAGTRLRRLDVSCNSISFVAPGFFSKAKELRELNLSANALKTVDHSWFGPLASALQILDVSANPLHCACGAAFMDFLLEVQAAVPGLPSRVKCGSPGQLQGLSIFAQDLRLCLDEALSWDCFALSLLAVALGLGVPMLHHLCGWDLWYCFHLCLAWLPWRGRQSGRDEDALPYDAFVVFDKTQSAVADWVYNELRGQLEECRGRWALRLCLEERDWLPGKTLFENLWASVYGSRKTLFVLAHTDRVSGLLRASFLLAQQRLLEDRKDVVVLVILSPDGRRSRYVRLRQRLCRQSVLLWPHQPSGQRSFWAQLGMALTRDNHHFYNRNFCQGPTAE
The experiment can be described thus: TLR9 inhibition reporter assay (HEK-Blue cells, SEAP reporter, ODN2006 stimulation). The following applies: HEK-Blue cells overexpressing human TLR9, SEAP reporter, ODN2006 5 nM. The procedure, abridged: as §1

The term IC50 denotes the concentration that inhibits the measured activity by half. Turning to `Cc1c(-c2[nH]c3sc(C4CCC(N(C)CC(C)C)CC4)nc3c2C(C)C)cn2ncnc2c1C` (single isomer, unassigned) [Example 228, 4-(5-(7,8-dimethyl-[1,2,4]triazolo[1,5-a]pyridin-6-yl)-6-isopropyl-4H-pyrrolo[3,2-d]thiazol-2-yl)-N-isobutyl-N-methylcyclohexan-1-amine], the IC50 came to 2.18 nM at human TLR7, 1.46 nM at human TLR8 and 8860 nM on human TLR9.
With `Cc1c(-c2[nH]c3sc(C4CCC(N(C)CC(C)C)CC4)nc3c2C(C)C)cn2ncnc2c1C` (single isomer, unassigned) [Example 229, 4-(5-(7,8-dimethyl-[1,2,4]triazolo[1,5-a]pyridin-6-yl)-6-isopropyl-4H-pyrrolo[3,2-d]thiazol-2-yl)-N-isobutyl-N-methylcyclohexan-1-amine], the IC50 stood at 7.1 nM on human TLR7, 3.71 nM at human TLR8 and 4960 nM at human TLR9.
Taken in the same sequence, the figures for `Cc1c(-c2[nH]c3sc(C4CCC(NC5CCS(=O)(=O)C5)CC4)nc3c2C(C)C)cn2ncnc2c1C` (single isomer, unassigned) [Example 231, 3-((4-(5-(7,8-dimethyl-[1,2,4]triazolo[1,5-a]pyridin-6-yl)-6-isopropyl-4H-pyrrolo[3,2-d]thiazol-2-yl)cyclohexyl)amino)tetrahydrothiophene 1,1-dioxide] were 6.32 nM, 1.19 nM and 49500 nM.
In the same order, the values of `Cc1c(-c2[nH]c3sc(C4CCC(NC5CCS(=O)(=O)C5)CC4)nc3c2C(C)C)cn2ncnc2c1C` (single isomer, unassigned) [Example 232, 3-((4-(5-(7,8-dimethyl-[1,2,4]triazolo[1,5-a]pyridin-6-yl)-6-isopropyl-4H-pyrrolo[3,2-d]thiazol-2-yl)cyclohexyl)amino)tetrahydrothiophene 1,1-dioxide] are 4.19 nM, 7.87 nM and more than 50000 nM.
With `Cc1c(-c2[nH]c3sc(C4CCC(N5CC6(C5)CS(=O)(=O)C6)CC4)nc3c2C(C)C)cn2ncnc2c1C` (single isomer, unassigned) [Example 233, 6-(4-(5-(7,8-dimethyl-[1,2,4]triazolo[1,5-a]pyridin-6-yl)-6-isopropyl-4H-pyrrolo[3,2-d]thiazol-2-yl)cyclohexyl)-2-thia-6-azaspiro[3.3]heptane 2,2-dioxide], the IC50 at human TLR7 is 2.3 nM; at human TLR8, 0.59 nM; at human TLR9 it was more than 50000 nM.
Turning to `Cc1c(-c2[nH]c3sc(C4CCC(N5CC6(C5)CS(=O)(=O)C6)CC4)nc3c2C(C)C)cn2ncnc2c1C` (single isomer, unassigned) [Example 234, 6-(4-(5-(7,8-dimethyl-[1,2,4]triazolo[1,5-a]pyridin-6-yl)-6-isopropyl-4H-pyrrolo[3,2-d]thiazol-2-yl)cyclohexyl)-2-thia-6-azaspiro[3.3]heptane 2,2-dioxide], the results for the IC50 at human TLR7, on human TLR8 and against human TLR9 were 15.1 nM, 59.8 nM and more than 50000 nM, respectively.
Turning to `Cc1c(-c2[nH]c3sc(C4CCC(N5CC(O)(C(F)(F)F)C5)CC4)nc3c2C(C)C)cn2ncnc2c1C` (single isomer, unassigned) [Example 235, 1-(4-(5-(7,8-dimethyl-[1,2,4]triazolo[1,5-a]pyridin-6-yl)-6-isopropyl-4H-pyrrolo[3,2-d]thiazol-2-yl)cyclohexyl)-3-(trifluoromethyl)azetidin-3-ol], the IC50 came out at 1.05 nM on human TLR7, 1.01 nM on human TLR8 and 16600 nM on human TLR9.
In the same order, the values of `Cc1c(-c2[nH]c3sc(C4CCC(N5CC(O)(C(F)(F)F)C5)CC4)nc3c2C(C)C)cn2ncnc2c1C` (single isomer, unassigned) [Example 236, 1-(4-(5-(7,8-dimethyl-[1,2,4]triazolo[1,5-a]pyridin-6-yl)-6-isopropyl-4H-pyrrolo[3,2-d]thiazol-2-yl)cyclohexyl)-3-(trifluoromethyl)azetidin-3-ol] are 1.36 nM, 18.7 nM and 25400 nM.
On to `Cc1c(-c2[nH]c3sc(C4CCC(N5CCC6(CC5)COC6)CC4)nc3c2C(C)C)cn2ncnc2c1C` (single isomer, unassigned) [Example 237, 7-(4-(5-(7,8-dimethyl-[1,2,4]triazolo[1,5-a]pyridin-6-yl)-6-isopropyl-4H-pyrrolo[3,2-d]thiazol-2-yl)cyclohexyl)-2-oxa-7-azaspiro[3.5]nonane], for which the results for the IC50 at human TLR7, at human TLR8 and on human TLR9 were 4.87 nM, 0.29 nM and 5490 nM, respectively.
Taken in the same sequence, the figures for `Cc1c(-c2[nH]c3sc(C4CCC(N5CCC6(CC5)COC6)CC4)nc3c2C(C)C)cn2ncnc2c1C` (single isomer, unassigned) [Example 238, 7-(4-(5-(7,8-dimethyl-[1,2,4]triazolo[1,5-a]pyridin-6-yl)-6-isopropyl-4H-pyrrolo[3,2-d]thiazol-2-yl)cyclohexyl)-2-oxa-7-azaspiro[3.5]nonane] were 5.4 nM, 5.96 nM and 5370 nM.
